{"source": "patent US20240009212A1", "about": "“PHOSPHAPLATIN COMPOUNDS AS THERAPEUTIC AGENTS SELECTIVELY TARGETING HIGHLY GLYCOLYTIC TUMOR CELLS AND METHODS THEREOF” (Promontory Therapeutics Inc., priority 2020, published 2024)", "format_in_all_cases": "cell-based, mouse", "key": {"[1]": {"system": "L929dt and L929^dt cells", "assay": "Mitochondrial ROS production (MitoSOX), sensitive cells", "description": "Total ROS production and mitochondrial membrane potential were simultaneously measured using a FACScalibur flow cytometer. Pretreated cells with PT-112 were incubated with DiOC6 at 20 nM (Molecular Probes, Madrid) and DHE at 2 μM (Molecular Probes, Madrid) for 30 min at 37° C. For specific mitochondrial ROS production, cells were incubated with MitoSOX™ (5 μM, ThermoFisher, Rockford, USA) for 30 minutes at 37° C.\nIn order to obtain more evidence about the mechanism of action of PT-112, its effect on ROS production was analyzed. First, a time-course determination of total ROS generation by detection of 2HE oxidation was performed by flow cytometry. […] To complete this study, specific mitochondrial ROS production upon PT-112 treatment using the MitoSOX™ reagent was determined.\nHowever, this effect can be due to direct reactivity of the thiol group with Pt, inactivating the cytotoxic potential of PT-112, and not to the elimination of ROS generation. This hypothesis was confirmed by incubating PT-112 with GSH during 1 h in the absence of cells and adding this GSH-treated PT-112 to cells, showing no cytotoxicity (FIG. 6). […] Since PT-112-induced ROS generation seems to be concentrated in mitochondria, the mitochondria-specific ROS scavenger MitoTEMPO was used. Cells (3×10^4) were seeded in a 96-well plate in phenol red-free medium and were incubated with 100 μM of MitoTEMPO for 2 h. Then, 10 μM of PT-112 was added and incubated for 48 and 72 h at 37° C."}, "[2]": {"system": "L929dt and L929^dt cells", "assay": "ROS scavengers on PT-112-induced cell death", "settings": "for effect on PT-112-induced cell death: ROS scavenger plus 10 μM PT-112 (GSH 5 mM, 72 h)"}, "[3]": {"system": "glycolytic cells sensitive to PT-112-induced cell death", "assay": "Apoptosis and necroptosis inhibition of PT-112-induced cell death", "settings": "1 h pretreatment (Z-VAD-fmk 50 μM, necrostatin-1 30 μM), then 10 μM PT-112 for 48 h", "description": "Cells (3×10^4) were seeded in a 96-well plate and incubated with a pan-caspase-inhibitor Z-VAD-fmk (50 μM, MedChem Express, New Jersey, USA) and/or RIPK-1 inhibitor necrostatin-1 (30 μM, MedChem Express, New Jersey, USA) for 1 h. After that, cells were treated with 10 μM of PT-112 and incubated for 48 h at 37° C. Both inhibitors were refreshed in their corresponding well after 24 h. Finally, cell death was assessed using flow cytometry after incubation with annexin-V-FITC and 7-AAD for 10 minutes. […] For this purpose, a FITC-labelled anti-caspase-3 antibody that detects cleaved, active caspase-3 by flow cytometry was used. Cells (3×10^4) were treated with 10 μM of PT-112 for 24-72 h. Then, cells were incubated with anti-cleaved caspase-3 labelled with FITC dye and analyzed by flow cytometry. […] The implications of caspase-3 activation in this process were investigated by tested the ability of the general pan-caspase inhibitor Z-VAD-fmk and/or the necroptosis inhibitor necrostatin-1 to prevent cell death induced by PT-112 (FIG. 4B). Cells were pretreated for 1 h with or without pan-caspase or/and necroptosis inhibitors and then, incubated with 10 μM of PT-112 for 48 h. Flow cytometry analysis was carried-out using annexin-V-FITC and 7-AAD staining. Cells were stained simultaneously with annexin-V-FITC and 7-AAD and the percentage of the different populations analyzed by flow cytometry. […]"}, "[4]": {"system": "L929-ρ^0 cells", "assay": "MTT relative cell growth, rho0 cells", "settings": "2, 6 and 10 μM, 24-72 h", "description": "(§1) Cell Culture and Generation of Cybrids Mouse fibroblast cell lines L929 and L929-derived (L929dt) were routinely cultured in high glucose DMEM medium with GlutaMAX (Life Technologies, Paisley, UK) supplemented with 10% of fetal calf serum (FCS), penicillin (1000 U/ml) and streptomycin (10 mg/ml) (PanBiotech, Aidenbach, Germany) at 37° C. and 5% CO2 using standard procedures. The transmitochondrial cell lines L929^dt and dt^L929 were obtained as previously described (Schmidt, W., et al. (1993) 53:799-805) and cultured with the identical medium used with the parental cells. For L929-ρ^0 cells, complete DMEM medium was also supplemented with 100 pyruvate (100 μg/ml) and uridine (50 μg/ml).\nRelative cell growth was measured using the Mossman's method. 3×10^4 cells were seeded per well in a 96-well flat-bottomed plate and incubated with increasing concentrations of PT-112 or cisplatin (2, 6, and 10 μM) for 24-72 h at 37° C. Then, 10 μl of a 5 mg/ml MTT dye solution was added per well and incubated for 3 hours. During the incubation time, viable cells reduce MTT solution in insoluble purple formazan crystals, solubilized afterwards with isopropanol and 0.05 M HCl mixture and the absorbance was measured in a microplate reader (Dynatec, Pina de Ebro, Spain). […]"}, "[5]": {"system": "L929, L929dt and cybrids cells", "assay": "Cytotoxicity, annexin-V-FITC/7-AAD flow cytometry", "settings": "10 μM, 24, 48 or 72 h", "description": "Cytotoxicity assays were carried-out as follows: 100 μl aliquots of 3×10^4 cells were seeded per well in 96-well plate and 10 μM of PT-112 or cisplatin was added and incubated for 24-72 h at 37° C. Cell death was analyzed using a FACScalibur flow cytometer (BD Biosciences) after incubation with Annexin-V-FITC and/or 7-AAD (BD Biosciences, Madrid) in annexin binding buffer (140 mM NaCl, 2.5 mM CaCl2), 10 mM HEPES/NaOH, pH 7.4) for 10 minutes.\nTo test cell death induction by PT-112 and cisplatin, the parental cells L929, L929dt and cybrids cells were incubated with 10 μM of PT-112 or cisplatin for 24, 48 or 72 h and, at the end of the incubations, simultaneously stained with annexin-V-FITC and 7-AAD and analyzed by flow cytometry. […] The results are shown as mean±SD of at least 2 independent experiments made in duplicate. […] On the contrary, in cells treated with PT-112, this population is not observed at any time point in sensitive L929dt and L929^dt cells, and a population double positive for both markers is at short times of exposure, increasing with time (FIG. 2B, bar sections colored in white). Finally, at longer times, a population positive for 7-AAD and negative for annexin-V staining appears for both cell lines, typical of necrotic cell death (FIG. 2B, sections colored in grey)."}, "[6]": {"system": "L929dt and L929^dt cybrid cells", "assay": "MTT relative cell growth, glycolytic cells", "settings": "72 h, highest dose (10 μM)", "description": "as §1\n(§2) Relative cell growth was measured using the Mossman's method. 3×10^4 cells were seeded per well in a 96-well flat-bottomed plate and incubated with increasing concentrations of PT-112 or cisplatin (2, 6, and 10 μM) for 24-72 h at 37° C. […] During the incubation time, viable cells reduce MTT solution in insoluble purple formazan crystals, solubilized afterwards with isopropanol and 0.05 M HCl mixture and the absorbance was measured in a microplate reader (Dynatec, Pina de Ebro, Spain).\n(§3) The sensitivity of L929, L929dt and cybrid cells to PT-112 was compared. […] The ability of both drugs to inhibit cell growth was assessed by the MTT reduction method. […]"}, "[7]": {"system": "L929 and dt^L929 cells", "assay": "MTT relative cell growth, OXPHOS-competent cells", "settings": "72 h, higher doses", "description": "as §1, §2, §3"}}, "note": "Peptide text beside a SMILES is read from it. * marks the point of attachment. Cbz = O=C(OCc1ccccc1)*; CH2F = FC*"}
{"molecule": "CC1(C)CC(NC(=O)C[P+](c2ccccc2)(c2ccccc2)c2ccccc2)CC(C)(C)N1[O]", "note": "[MitoTEMPO]", "values": [{"measurement": "inhibition of mitochondrial superoxide generation induced by PT-112", "setting": "[1]; 100 μM MitoTEMPO 2 h, then 10 μM PT-112, L929dt cells", "value": "only partially"}, {"measurement": "inhibition of mitochondrial superoxide generation induced by antimycin A", "setting": "[1]; 100 μM MitoTEMPO, L929dt cells", "value": "almost completely abolish"}, {"measurement": "protection from PT-112-induced L929dt cell death", "setting": "[2]; 100 μM MitoTEMPO, 10 μM PT-112, statistically significant after 72 h", "value": "partial protection"}]}
{"molecule": "O=C(O)c1ccc(/C2=C3\\C=CC(=N3)/C(c3ccc(C(=O)O)cc3)=c3/cc/c4[n]3[Mn]([Cl])[n]3c2ccc3/C(c2ccc(C(=O)O)cc2)=C2/C=CC(=N2)\\C=4c2ccc(C(=O)O)cc2)cc1", "note": "[MnTBAP]", "values": [{"measurement": "effect on PT-112-induced cell death", "setting": "[2]", "value": "neither of them were able to prevent"}]}
{"molecule": "CC1(C)CCCC(C)(C)N1[O]", "note": "[TEMPO]", "values": [{"measurement": "effect on PT-112-induced cell death", "setting": "[2]", "value": "neither of them were able to prevent"}]}
{"molecule": "COC(=O)C[C@H](NC(=O)[C@H](C)NC(=O)[C@@H](NC(=O)OCc1ccccc1)C(C)C)C(=O)CF", "note": "[Z-VAD-fmk] (Cbz-Val-Ala-Asp(OMe)-CH2F)", "values": [{"measurement": "prevention of cell death induced by PT-112", "setting": "[3]", "value": "did not inhibit cell death"}]}
{"molecule": "N.N.[Cl][Pt][Cl]", "note": "[cisplatin]", "values": [{"measurement": "cell growth", "setting": "[4]", "value": "inhibited the growth"}, {"measurement": "cell death induction", "setting": "[5]", "value": "induces cell death in all cell lines"}, {"measurement": "growth inhibition", "setting": "[6]", "value": 95, "unit": "%"}, {"measurement": "growth inhibition", "setting": "[7]", "value": 70, "unit": "%"}]}
{"molecule": "N[C@@H](CCC(=O)N[C@@H](CS)C(=O)NCC(=O)O)C(=O)O", "note": "[glutathione]", "values": [{"measurement": "effect on PT-112-induced cell death", "setting": "[2]", "value": "completely abolished"}]}
{"molecule": "CN1C(=O)C(Cc2c[nH]c3ccccc23)NC1=S", "note": "(centres unmarked) [necrostatin-1]", "values": [{"measurement": "prevention of cell death induced by PT-112", "setting": "[3]", "value": "did not inhibit cell death"}]}
{"molecule": "Cc1c(C)c2c(c(C)c1O)CC[C@@](C)(CCC[C@H](C)CCC[C@H](C)CCCC(C)C)O2", "note": "[α-tocopherol]", "values": [{"measurement": "effect on PT-112-induced cell death", "setting": "[2]", "value": "neither of them were able to prevent"}]}
{"molecule": "antimycin A", "values": [{"measurement": "mitochondrial superoxide anion, MFI", "setting": "[1]; L929dt cells, MitoSOX, FIG. 7", "value": 128}]}
